Among the data in PubChem BioAssay AID588663 (The Scripps Research Institute Molecular Screening Center, 2011) are inhibition values, retold here.

Structures are written as SMILES. Active and inactive are the calls of the source.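 How the source made its calls: active means phosphorylated p38 level shifted at least 30% either way versus solvent-only control; inactive means shift under 30% either way.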

In this assay the test system is SW620 cells, phospho-p38 western blot, 24 h. In words: phospho-p38 level change, either direction, late-stage follow-up, counter-screen for KLF5 inhibitor project, SW620 cells, chemiluminescent western blot, powder samples (AID 588663). Conditions: at 10 µM; hits give high values. In general terms: A counterscreen serves to expose hits that act by an unwanted route or on another target.
Regarding `CN(C(=O)CNC(=O)/C=C/c1cccc(Cl)c1)C1CCS(=O)(=O)CC1`, the inhibition (as a rule, the drop in the measured response relative to a control, in per cent) was 6.58% (inactive).
Turning to `CN(C(=O)CNC(=O)/C=C/c1cccc(Cl)c1)C1CCS(=O)(=O)C1` (stereo not drawn), the inhibition was 15.9% (inactive).
In the case of `CN(C(=O)COC(=O)/C=C/c1cccc([N+](=O)[O-])c1)C1CCS(=O)(=O)C1` (stereo not drawn) it was 9.32% (inactive).
